Source: patent US20060167229A1, “Biologically active peptide conjugates” (priority 2002, published 2006)
Marks after values point to notes of the source that are not given here. Ends that are not written are not given here.

Experiments:
[1] = system: T lymphocyte; experiment: T lymphocyte transformation test (ConA-stimulated spleen cells of treated mice, MTT); type: in vivo, BALB/c mice; conditions: for X ± SD (stimulation index): healthy mice, saline 1.3 ± 0.1; for effect on T lymphocyte transformation (summary): statistically significant difference from saline in any of the dosage groups 0.5-500 μg/kg/day
Summary of the method: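 Mice (10/group) received substances i.p. in 0.5 ml saline daily for 15 days; next day splenocytes (1×10^6/ml) were cultured 66 h at 37 °C with or without ConA (100 μg/ml stock added). MTT was added for 4 h and OD570 (ref 630 nm) read; stimulation index = mean ConA OD / mean control OD per mouse.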

[2] = system: IL-2; experiment: T lymphocyte IL-2 secretion test (HT-2 cell bioassay of ConA supernatant); type: in vivo, BALB/c mice; conditions: for activity of T lymphocyte in secreting IL-2, X ± SD (IU): healthy mice; for effect on the secretion of interleukin-2 (IL-2) by T lymphocytes (summary): statistically significant difference from saline in any of the dosage groups 0.5-500 μg/kg/day
Method: Spleen cells of density 1×10^6/ml were placed onto a 96 wells cell culture plate, 100 μL/well, three parallel wells each of the assay sample and control sample per mouse. To the assay wells, 100 μl/well ConA of 100 μg/ml in RPMI-1640 was added, and […] plain RPMI-1640 was used for the controls. The cells were incubated for 66 hrs at 37° C., 5% CO2. The cells were then pelleted by centrifugation at 150 g for 10 minutes.
HT-2 cells at log phase were collected by centrifugation at 150 g for 10 minutes, and washed three times with cold Hank's solution by re-suspension and centrifugation. The collected HT-2 cells were re-suspended in RPMI-1640 and incubated at 37° C., 5% CO2 for 30 minutes. The cells were further washed twice with RPMI-1640 by re-suspension and centrifugation, and re-suspended to final concentration of 2×10^5/ml with RPMI-1640.
rIL-2 was diluted to the following concentration with RPMI-1640: 500 IU/ml, 250 IU/ml, 125 IU/ml, 62.5 IU/ml, 31.25 IU/ml, and […].
The plate was incubated at 37° C., 5% CO2 for 68 hours, then centrifuged at 150 g for 15 minutes and the supernatant removed. 100 μl 0.5 mg/ml MTT in RPMI-1640 without phenolsulfonphthalein was added into each well. After shaking for 3-4 minutes to re-suspend the cells, continue to incubate for another 4 hours. Samples were then centrifuged at 150 g for 15 minutes and the supernatant was removed. To each well, 120 μl 40 mM HCl-2-propanol was added, mixed for 3-4 minutes and OD analyzed at 570 nm, referenced at 630 nm with an ELISA plate reader.
The average OD of the three parallel wells of each dilution was taken and plotted against concentration on a semi-log paper, concentration on the X-axis. The concentration at 50% OD saturation was obtained for both the testing supernatant and rIL-2.

[3] = system: interferon (IFN); set-up: species or system BALB/c mice; conditions: mouse, in vivo; for activity of T lymphocyte in secreting IFN, X ± SD (IU): ip
[4] = system: Sheep red blood cells (SRBC); experiment: Humoral immunity (SRBC hemolysis index) of mice bearing transplanted B16 melanoma; type: in vivo, C57BL/6 mice; set-up: key: index = (OD540 sample ÷ reference OD540) × 500; conditions: saline 19.0 ± 9.1
Method: Intraperitoneal injection, once per day. […] Treatment of all groups with testing substance lasted for 30 days or until the animal died unless otherwise specified.
Stock B16 mouse melanoma cells were incubated in DMEM/F12 medium supplemented with 10% fetal bovine serum, 37° C./5% CO2 for 72 hrs, then washed 3-4 times with Hank's solution. The cell concentration was adjusted to 1×10^5 per ml with Hank's solution and 0.1 ml of the cell suspension was injected via the tail vein into the testing mice to generate the B16 melanoma bearing animal model. Treatment with test substance started as described in section Method 1.
Sheep red blood cells (SRBC) were prepared by collecting blood from the cervical vein and put into a sterile flask with glass beads. The flask was shaken for 3 minutes and the blood then mixed with Alsever solution (glucose 2.05 g, NaCl 0.4 g, […] 0.8 g, adjust to 100 ml with distilled water) and stored at 4° C. Immediately before use, samples were centrifuged at 130 g, 5 minutes to collect the SRBC. The cells were washed two times by re-suspension and centrifugation in normal saline. Then the cell pellet was collected by centrifugation at 180 g for 10 minutes and re-suspended in saline to make the final working SRBC suspension, 2% (v/v).
Complement was prepared by adding 10 volumes of fresh Cavy serum into one volume centrifuge packed SRBC, and then gently shaken for 30 minutes at 4° C. The SRBC was removed by centrifugation at 200 g for 10 minutes. 10 volumes of normal saline were added to obtain the working complement solution.
On the testing animals, on the 27th date of test substance treatment, 0.2 ml of the working SRBC cell suspension was injected into each animal to raise antibody. On the day after the last test substance administration, blood was collected from the eye canthus and left at room temperature for one hour for serum exudation. After centrifugation at 200 g for 10 minutes, the collected serum was diluted by 500 times with normal saline.
To 1 ml diluted mouse serum of each mouse, 0.5 ml SRBC suspension was added. Ice cold. Then 1 ml working complement solution was added and incubated at 37° C. water bath for 10 minutes. Reactions were terminated by ice cold. Samples were then centrifuged at 200 g for 10 minutes to obtain the supernatant.
To 1 ml of this supernatant, 3 ml Drabkin solution was added and left at room temperature for 10 minutes. OD540 nm was obtained.
Reference OD540 nm was obtained by mixing 0.25 ml SRBC suspension with Drabkin solution to 4 ml and placed at room temperature for 10 minutes before OD540 nm was taken. Hemolysis index=(OD540 nm of test sample÷reference OD540 nm)×500 6.2 After the Humoral Immunity Study, the Mice were Killed by Cervical Vertebra Dislocation. Postmortem Examination of the Animals was Performed. The Pathological Changes were Recorded, and the Numbers of Melanoma Lung Metastasis Foci Were Counted. Results

[5] = peptide 5 μg/kg/day i.p. 15 days (IFN-γ, IL-2 3×10^5 IU/kg/day)
[6] = peptide 50 μg/kg/day i.p. 15 days (IFN-γ, IL-2 3×10^5 IU/kg/day)
[7] = peptide 50 μg/kg/day i.p. 15 days (IFN-γ, IL-2 3×10^5 IU/kg/day), saline 39 ± 10
[8] = peptide 500 μg/kg/day i.p. 15 days (IFN-γ, IL-2 3×10^5 IU/kg/day)
[9] = peptide 5 μg/kg/day i.p. 15 days (IFN-γ, IL-2 3×10^5 IU/kg/day), saline 37 ± 9
[10] = peptide 0.51 g/kg/day (so in the source) i.p. 15 days (IFN-γ, IL-2 3×10^5 IU/kg/day), saline 38 ± 13
[11] = peptide 500 μg/kg/day i.p. 15 days (IFN-γ, IL-2 3×10^5 IU/kg/day), saline 39 ± 10

Row | Substance | X ± SD (stimulation index) [1, 5] | X ± SD (stimulation index) [1, 6] | effect on T lymphocyte transformation (summary) [1] | activity of T lymphocyte in secreting IL-2, X ± SD (IU) [2, 7] | effect on the secretion of interleukin-2 (IL-2) by T lymphocytes (summary) [2] | effect on the secretion of IFN by T lymphocytes (summary) [3] | activity of T lymphocyte in secreting IFN, X ± SD (IU) [3] | Hemolysis index ([4]; dose 0.5 μg/kg) | Hemolysis index ([4]; dose 5 μg/kg) | Hemolysis index ([4]; dose 50 μg/kg) | Hemolysis index ([4]; dose 500 μg/kg) | X ± SD (stimulation index) ([1]; peptide 0.5 μg/kg/day i.p. 15 days (IFN-γ, IL-2 3×10^5 IU/kg/day)) | X ± SD (stimulation index) [1, 8] | activity of T lymphocyte in secreting IL-2, X ± SD (IU) [2, 9] | activity of T lymphocyte in secreting IL-2, X ± SD (IU) [2, 10] | activity of T lymphocyte in secreting IL-2, X ± SD (IU) [2, 11]
1 | FNFVPP [CMS003] | 1.6 ± 0.2 | 2.2 ± 0.5*^@^ | enhance | 86 ± 9*^ IU | enhance | enhance | 106 ± 16 IU | 61.6 ± 26.9*^$ | 37.2 ± 15.9*^$ | 38.7 ± 13.5*^$ | 35.9 ± 13.0*^$ |  |  |  |  | 
2 | IGMESAGIHETTY [CMS016] |  |  |  |  |  | enhance | 162 ± 19*^@^ IU |  |  |  | 43.3 ± 29.9 |  |  |  |  | 
3 | KAVGHLDDLPGAL [CMS008] |  |  | enhance |  |  |  |  | 42.7 ± 18.4*^$ | 38.9 ± 12.0*^$ | 37.1 ± 16.7*^$ | 50.1 ± 17.8*^$ | 1.7 ± 0.3 | 1.7 ± 0.1 |  |  | 
4 | LGMQACGIHETTY [CMS012] |  |  | enhance |  | enhance | enhance | 86 ± 9 IU |  |  |  |  |  | 1.6 ± 0.2 | 65 ± 16 IU | 59 ± 13 IU | 
5 | LRVAPQQHPTL [CMS009] |  |  | enhance |  | enhance | enhance | 121 ± 15*^ IU |  |  |  |  |  | 1.7 ± 0.2 |  |  | 114 ± 13*^@^ IU
6 | PTTKTYFPHF [CMS001] | 1.7 ± 0.2 | 2.2 ± 0.5*^@^ | enhance | 60 ± 10 IU | enhance | enhance | 110 ± 15 IU | 51.0 ± 16.2*^$ | 41.3 ± 17.7*^$ | 45.0 ± 31.9*^$ | 36.0 ± 10.2*^$ |  |  |  |  | 
7 | Phe Val Asn Asp (FVND; listed as Sus scrofa) [CMS035] |  |  |  |  |  |  |  |  | 38.9 ± 21.2*^$ | 44.7 ± 22.7*^$ | 40.5 ± 25.8 |  |  |  |  | 
8 | Pro Gln Asn Phe (PQNF; printed: Pro Gln Asn Phe) [CMS034] | 1.5 ± 0.2 |  | enhance |  | enhance |  |  | 50.8 ± 18.4*^$ | 43.0 ± 11.7*^$ | 30.2 ± 10.9 |  |  |  |  | 85 ± 10*^ IU | 
9 | Pro Ser Ile Vat Gly Arg Pro Arg His Gln Gly Val Met (PSIVGRPRHQGVM; listed as Sus scrofa) [CMS015] |  |  | enhance |  | enhance |  |  |  |  |  |  |  | 1.9 ± 0.3*^@^ |  |  | 85 ± 17*^ IU
10 | Tyr Ser Leu (YSL; listed as Sus scrofa) [CMS024] |  |  |  |  |  |  |  | 43.0 ± 10.7*^$ | 42.2 ± 11.8*^$ | 27.8 ± 9.1 | 30.1 ± 10.0 |  |  |  |  | 
11 | Tyr Ser Phe (YSF; listed as Sus scrofa) [CMS022] |  |  |  |  | enhance | enhance | 145 ± 13*^@^ IU |  |  |  |  |  |  |  | 109 ± 14*^@^ IU | 
12 | VGMGQKDSY |  |  | enhance |  |  |  |  | 42.0 ± 12.0*^$ | 35.4 ± 15.1*^$ | 28.3 ± 7.6 |  |  | 1.8 ± 0.3 |  |  | 
13 | VGMGQKDSYV [CMS020] |  |  |  |  | enhance |  |  |  |  |  |  |  |  | 63 ± 11 IU |  | 
